Data taken from US20150175584A1, “Quinazolin-THF-amines as PDE1 inhibitors” (H. LUNDBECK A/S, priority 2013, published 2015).

Assays:
Assay type in all cases: biochemical
Settings in all cases: 15 nM tritium labelled cAMP, 1 h at room temperature, SPA beads
PDE1B = PDE1B (Homo sapiens, UniProt Q01064); assay: PDE1 Inhibition Assay, PDE1B (SPA)
Description: (§1) PDE1A, PDE1B and PDE1C assays were performed as follows: the assays was performed in 60 μL samples containing a fixed amount of the PDE1 enzym1 (sufficient to convert 20-25% of the cyclic nucleotide substrate), a buffer (50 mM HEPES pH 7.6; 10 mM MgCl2; 0.02% Tween20), 0.1 mg/ml BSA, 15 nM tritium labelled cAMP and varying amounts of inhibitors. Reactions were initiated by addition of the cyclic nucleotide substrate, and reactions were allowed to proceed for 1 h at room temperature before being terminated through mixing with 20 μL (0.2 mg) yttrium silicate SPA beads (PerkinElmer). The beads were allowed to settle for 1 h in the dark before the plates were counted in a Wallac 1450 Microbeta counter. The measured signals were converted to activity relative to an uninhibited control (100%) and IC50 values were calculated using XIFit (model 205, IDBS).

PDE1C = PDE1C (Homo sapiens, UniProt Q14123); assay: PDE1 Inhibition Assay, PDE1C (SPA)
Description: as §1

PDE1A = PDE1A (Homo sapiens, UniProt P54750); assay: PDE1 Inhibition Assay, PDE1A (SPA)
Description: as §1

Sequence of PDE1A (P54750 whole entry): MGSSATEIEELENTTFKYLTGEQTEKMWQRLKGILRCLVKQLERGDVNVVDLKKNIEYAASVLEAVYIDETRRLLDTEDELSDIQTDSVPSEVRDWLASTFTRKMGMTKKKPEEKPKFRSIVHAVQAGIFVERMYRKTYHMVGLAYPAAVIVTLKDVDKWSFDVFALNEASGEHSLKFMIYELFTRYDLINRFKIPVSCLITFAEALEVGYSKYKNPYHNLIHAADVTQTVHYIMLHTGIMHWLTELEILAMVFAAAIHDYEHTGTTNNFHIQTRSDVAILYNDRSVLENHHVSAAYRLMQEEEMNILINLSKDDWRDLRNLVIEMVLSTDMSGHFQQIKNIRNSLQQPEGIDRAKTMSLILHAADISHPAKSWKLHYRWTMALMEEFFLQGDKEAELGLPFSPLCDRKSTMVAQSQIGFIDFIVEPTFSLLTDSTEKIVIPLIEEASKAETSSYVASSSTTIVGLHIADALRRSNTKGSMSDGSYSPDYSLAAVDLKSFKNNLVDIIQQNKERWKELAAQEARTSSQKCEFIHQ
Sequence of PDE1C (Q14123 whole entry): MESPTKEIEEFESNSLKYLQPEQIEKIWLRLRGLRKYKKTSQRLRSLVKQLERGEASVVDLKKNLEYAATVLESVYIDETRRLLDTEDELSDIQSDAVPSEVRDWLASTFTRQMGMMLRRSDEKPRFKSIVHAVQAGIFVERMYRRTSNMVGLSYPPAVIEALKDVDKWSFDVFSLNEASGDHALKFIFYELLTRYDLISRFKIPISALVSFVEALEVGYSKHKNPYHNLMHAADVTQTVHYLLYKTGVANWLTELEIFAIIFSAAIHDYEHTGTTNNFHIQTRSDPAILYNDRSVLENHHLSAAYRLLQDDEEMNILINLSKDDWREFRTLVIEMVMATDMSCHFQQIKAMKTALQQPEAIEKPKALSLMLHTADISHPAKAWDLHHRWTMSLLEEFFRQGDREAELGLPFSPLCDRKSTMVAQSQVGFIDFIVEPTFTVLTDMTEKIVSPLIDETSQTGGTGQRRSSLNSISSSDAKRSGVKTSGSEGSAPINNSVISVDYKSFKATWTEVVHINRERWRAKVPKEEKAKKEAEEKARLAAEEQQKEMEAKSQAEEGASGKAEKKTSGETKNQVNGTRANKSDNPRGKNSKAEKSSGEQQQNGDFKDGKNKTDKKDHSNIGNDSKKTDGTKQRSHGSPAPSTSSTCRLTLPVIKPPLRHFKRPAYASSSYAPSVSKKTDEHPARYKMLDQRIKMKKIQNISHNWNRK
Sequence of PDE1B (Q01064 whole entry): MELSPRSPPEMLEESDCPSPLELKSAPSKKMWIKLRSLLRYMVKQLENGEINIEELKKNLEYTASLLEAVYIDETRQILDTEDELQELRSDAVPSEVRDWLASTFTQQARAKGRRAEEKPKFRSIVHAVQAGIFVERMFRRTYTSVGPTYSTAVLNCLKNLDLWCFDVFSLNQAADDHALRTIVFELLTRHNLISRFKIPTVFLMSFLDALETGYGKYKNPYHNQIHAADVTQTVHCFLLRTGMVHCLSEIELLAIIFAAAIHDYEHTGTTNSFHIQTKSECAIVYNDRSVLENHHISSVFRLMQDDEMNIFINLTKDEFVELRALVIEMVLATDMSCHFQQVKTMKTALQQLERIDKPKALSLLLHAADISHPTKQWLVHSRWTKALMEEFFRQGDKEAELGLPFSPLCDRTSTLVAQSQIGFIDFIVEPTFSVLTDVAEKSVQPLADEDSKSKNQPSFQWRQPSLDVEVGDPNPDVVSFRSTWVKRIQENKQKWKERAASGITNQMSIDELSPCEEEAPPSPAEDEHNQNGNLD

Row | Structure (SMILES) | IC50 (PDE1B) [nM] | IC50 (PDE1C) [nM] | IC50 (PDE1A) [nM]
1 | COc1ccc2c(NC3(C)CCOC3C)ncnc2c1OC (mixture of isomers) [Compound 5, N-(2,3-dimethyltetrahydrofuran-3-yl)-7,8-dimethoxyquinazolin-4-amine] | 33 | 130 | 130
2 | COc1ccc2c(NC3CCOC3)ncnc2c1OC (racemic) [Compound 1, 7,8-Dimethoxy-N-(tetrahydrofuran-3-yl)quinazolin-4-amine] | 230 | 590 | 1200
3 | COc1ccc2c(N[C@@H]3COC[C@H]3OC)ncnc2c1OC (relative stereo) [Compound 17, Trans-7,8-dimethoxy-N-(4-methoxytetrahydrofuran-3-yl)quinazolin-4-amine] | 520 | 1300 | 2200
4 | COc1ccc2c(N[C@@H]3COC[C@H]3O)ncnc2c1OC (relative stereo) [Compound 18, trans-4-((7,8-dimethoxyquinazolin-4-yl)amino)tetrahydrofuran-3-ol] | 1300 | 2600 | 2300
5 | COc1ccc2c(N[C@@H]3COC[C@@H]3O)ncnc2c1OC (relative stereo) [Compound 19, cis-4-((7,8-dimethoxyquinazolin-4-yl)amino)tetrahydrofuran-3-ol] | 840 |  | 4600
6 | COc1ccc2c(NC3CCOC3)ncnc2c1OC (single isomer, unassigned) [1 Stereoisomer 1] | 54 | 280 | 280
7 | COc1ccc2c(NC3CCOC3)ncnc2c1OC (single isomer, unassigned) [1 Stereoisomer 2] | 600 | 1200 | 1900
8 | COc1ccc2c(NC3CCOC3C)ncnc2c1OC (single isomer, unassigned) [3 Stereoisomer 1] | 1200 | 3000 | 2500
9 | COc1ccc2c(NC3CCOC3C)ncnc2c1OC (single isomer, unassigned) [3 Stereoisomer 2] | 94 | 310 | 490
10 | COc1ccc2c(NC3CCOC3C)ncnc2c1OC (single isomer, unassigned) [3 Stereoisomer 3] | 100 | 390 | 890
11 | COc1ccc2c(NC3CCOC3C)ncnc2c1OC (single isomer, unassigned) [3 Stereoisomer 4] | 120 | 270 | 580
12 | COc1ccc2c(N(C)[C@@H]3CCOC3)ncnc2c1OC (single isomer, unassigned) [4 Stereoisomer 1] | 80 | 140 | 370
13 | COc1ccc2c(N(C)[C@H]3CCOC3)ncnc2c1OC (single isomer, unassigned) [4 Stereoisomer 2] | 80 | 140 | 1400
14 | COc1ccc2c(NC3(C)CCOC3C)ncnc2c1OC (single isomer, unassigned) [5 Stereoisomer 1] | 300 | 1100 | 590
15 | COc1ccc2c(NC3(C)CCOC3C)ncnc2c1OC (single isomer, unassigned) [5 Stereoisomer 2] | 87 | 400 | 240
16 | COc1ccc2c(NC3(C)CCOC3C)ncnc2c1OC (single isomer, unassigned) [5 Stereoisomer 3] | 6 | 67 | 33
17 | COc1ccc2c(NC3(C)CCOC3C)ncnc2c1OC (single isomer, unassigned) [5 Stereoisomer 4] | 15 | 140 | 77
18 | COc1ccc2c(NC3(C)CCOC3)ncnc2c1OC (single isomer, unassigned) [6 Stereoisomer 1] | 110 | 400 | 290
19 | COc1ccc2c(NC3(C)CCOC3)ncnc2c1OC (single isomer, unassigned) [6 Stereoisomer 2] | 37 | 110 | 140
20 | COc1ccc2c(N(C)C3(C)CCOC3C)ncnc2c1OC (single isomer, unassigned) [20 Stereoisomer 1] | 5 | 33 | 19
21 | COc1ccc2c(N(C)C3(C)CCOC3C)ncnc2c1OC (single isomer, unassigned) [20 Stereoisomer 2] | 4 | 27 | 26

Row | Structure (SMILES) | IC50 (PDE1B) [nM] | IC50 (PDE1C) [nM] | IC50 (PDE1A) [nM]
22 | COc1ccc2c(N(C)C3(C)CCOC3C)ncnc2c1OC (single isomer, unassigned) [20 Stereoisomer 3] | 190 | 890 | 440
23 | COc1ccc2c(N(C)C3(C)CCOC3C)ncnc2c1OC (single isomer, unassigned) [20 Stereoisomer 4] | 39 | 170 | 120
24 | COc1ccc2c(NC3CCOC3(C)C)ncnc2c1OC (single isomer, unassigned) [21 Stereoisomer 1] | 780 | 2800 | 1500
25 | COc1ccc2c(NC3CCOC3(C)C)ncnc2c1OC (single isomer, unassigned) [21 Stereoisomer 2] | 260 | 1600 | 1300
26 | COc1ccc2c(N(C)C3CCOC3C)ncnc2c1OC (single isomer, unassigned) [22 Stereoisomer 1] | 28 | 79 | 110
27 | COc1ccc2c(N(C)C3CCOC3C)ncnc2c1OC (single isomer, unassigned) [22 Stereoisomer 2] | 35 | 55 | 210
28 | COc1ccc2c(N(C)C3CCOC3C)ncnc2c1OC (single isomer, unassigned) [22 Stereoisomer 3] | 430 | 1500 | 1100
29 | COc1ccc2c(N(C)C3CCOC3C)ncnc2c1OC (single isomer, unassigned) [22 Stereoisomer 4] | 1100 | 780 | 1500
30 | COc1ccc2c(N(C)C3(C)CCOC3)ncnc2c1OC (single isomer, unassigned) [23 Stereoisomer 1] | 70 | 500 | 240
31 | COc1ccc2c(N(C)C3(C)CCOC3)ncnc2c1OC (single isomer, unassigned) [23 Stereoisomer 2] | 55 | 170 | 160
32 | COc1ccc2c(N(C)C3CCOC3)ncnc2c1OC (stereo not shown) [Compound 4, 7,8-Dimethoxy-N-methyl-N-(tetrahydrofuran-3-yl)quinazolin-4-amine] | 84 | 140 | 360
33 | COc1ccc2c(NC3(C)CCOC3)ncnc2c1OC (stereo not shown) [Compound 6, 7,8-dimethoxy-N-(3-methyltetrahydrofuran-3-yl)quinazolin-4-amine] | 62 | 160 | 150
34 | CCN(c1ncnc2c(OC)c(OC)ccc12)[C@H]1CCOC1 [Compound 8, (S)-N-ethyl-7,8-dimethoxy-N-(tetrahydrofuran-3-yl)quinazolin-4-amine] | 250 | 510 | 480
35 | CCCN(c1ncnc2c(OC)c(OC)ccc12)[C@H]1CCOC1 [Compound 9, (S)-7,8-dimethoxy-N-propyl-N-(tetrahydrofuran-3-yl)quinazolin-4-amine] | 180 | 540 | 280
36 | COc1ccc2c(N(Cc3ccccc3)[C@H]3CCOC3)ncnc2c1OC [Compound 10, (S)-N-benzyl-7,8-dimethoxy-N-(tetrahydrofuran-3-yl)quinazolin-4-amine] | 360 | 1400 | 820
37 | COc1ccc2c(N(CC3CC3)[C@H]3CCOC3)ncnc2c1OC [Compound 11, (S)-N-(cyclopropylmethyl)-7,8-dimethoxy-N-(tetrahydrofuran-3-yl)quinazolin-4-amine] | 420 | 1600 | 850
38 | CCN(c1ncnc2c(OC)c(OC)ccc12)[C@@H]1CCOC1 [Compound 13, (R)—N-ethyl-7,8-dimethoxy-N-(tetrahydrofuran-3-yl)quinazolin-4-amine] | 600 | 1500 | 1200
39 | CCCN(c1ncnc2c(OC)c(OC)ccc12)[C@@H]1CCOC1 [Compound 14, (R)-7,8-dimethoxy-N-propyl-N-(tetrahydrofuran-3-yl)quinazolin-4-amine] | 180 | 360 | 270
40 | COc1ccc2c(N(CC3CC3)[C@@H]3CCOC3)ncnc2c1OC [Compound 15, (R)—N-(cyclopropylmethyl)-7,8-dimethoxy-N-(tetrahydrofuran-3-yl)quinazolin-4-amine] | 820 | 2100 | 2500
41 | COc1ccc2c(N(Cc3ccccc3)[C@@H]3CCOC3)ncnc2c1OC [Compound 16, (R)—N-benzyl-7,8-dimethoxy-N-(tetrahydrofuran-3-yl)quinazolin-4-amine] | 410 | 1600 | 1200
42 | CCC1(Nc2ncnc3c(OC)c(OC)ccc23)CCOC1 (stereo not shown) [Compound 24, N-(3-Ethyltetrahydrofuran-3-yl)-7,8-dimethoxyquinazolin-4-amine] | 63 | 220 | 
